Results taken from US9029337B2, “Modulation of factor 7 expression” (Isis Pharmaceuticals, Inc., priority 2007, dated 2015).
Strand notation (5' to 3'): a small letter for the sugar, then the base; units joined by * are phosphorothioate-linked, units joined directly phosphodiester-linked; [ ] holds rarer units or linkages, { } end groups; capitals alone tell only the bases. e = 2'-O-(2-methoxyethyl) (MOE); [5mC] = 5-methylcytosine; d = 2'-deoxy (DNA)

Each substance was assayed on human Factor 7 mRNA (assay: Antisense inhibition of human Factor 7 mRNA in HepB3 cells, 50 nM antisense oligonucleotide, lipofectin). Details: Table 1, 50 nM, lipofectin, approximately 24 hours, relative to untreated control cells.
Format: cell-based
Procedure, shortened: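 Readout is percent reduction of Factor 7 message compared with untreated cells, after correction for total RNA content quantified by RIBOGREEN®. Cultures were seeded at 4,000 cells per well and treated for about 24 hours before RNA extraction.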

First: 407902 (antisense e[5mC]*eA*e[5mC]*e[5mC]*e[5mC]*dA*dG*dA*dT*dG*dG*dT*dG*dT*dT*eG*eA*eT*e[5mC]*eA) [compound 407902]
Second: 407895 (antisense e[5mC]*eA*e[5mC]*eA*e[5mC]*dA*dG*dA*dT*d[5mC]*dA*dG*d[5mC]*dT*dG*eG*eT*e[5mC]*eA*eT) [compound 407895]
The “% Inhibition” value of the first is higher: 86% for the first, 72% for the second.

First: 407916 (antisense eG*eT*eG*eG*e[5mC]*d[5mC]*d[5mC]*dA*d[5mC]*dG*dG*dT*dT*dG*d[5mC]*eG*e[5mC]*eA*eG*e[5mC]) [compound 407916]
Second: 407612 (antisense eA*eG*eA*eT*e[5mC]*dA*dG*d[5mC]*dT*dG*dG*dT*d[5mC]*dA*dT*e[5mC]*e[5mC]*eT*eT*eG) [compound 407612]
The “% Inhibition” value of the first is lower: 53% for the first, 82% for the second.

Going from “407928 (antisense e[5mC]*eT*eT*eG*eG*d[5mC]*dT*dG*dA*dA*dG*dG*dG*dA*dG*eG*eT*eA*eA*eG) [compound 407928]” to “407888 (antisense e[5mC]*eG*eA*eA*eG*dA*d[5mC]*dT*dG*d[5mC]*dA*dG*d[5mC]*d[5mC]*dA*eG*eG*e[5mC]*eA*eG) [compound 407888]”, the “% Inhibition” value falls from 55% to 34%.

Compared with “407901 (antisense eT*eG*eG*eT*eG*dT*dT*dG*dA*dT*d[5mC]*dA*dG*dG*dG*eT*e[5mC]*e[5mC]*e[5mC]*e[5mC]) [compound 407901]”, “407924 (antisense eG*eA*eT*eT*eT*dG*dG*dT*dG*d[5mC]*d[5mC]*dA*dG*dG*dA*e[5mC]*eA*eG*eT*eT) [compound 407924]” is lower in “% Inhibition” value: 89% for the first, 68% for the second.

Going from “407898 (antisense e[5mC]*e[5mC]*eA*eG*e[5mC]*dA*dG*dA*dG*dA*dG*dT*dA*d[5mC]*d[5mC]*e[5mC]*e[5mC]*eT*e[5mC]*eG) [compound 407898]” to “407669 (antisense eT*eA*eG*eA*e[5mC]*d[5mC]*d[5mC]*dT*d[5mC]*dA*dG*dT*dG*dA*dG*eT*eG*eT*e[5mC]*eG) [compound 407669]”, the “% Inhibition” value rises from 49% to 57%.

Going from “407957 (antisense eG*eG*e[5mC]*e[5mC]*eT*dG*dG*dG*dA*dA*d[5mC]*dT*dT*dG*d[5mC]*eA*eT*eT*eT*eA) [compound 407957]” to “407625 (antisense eT*eT*eG*eT*e[5mC]*dG*dA*dA*dA*d[5mC]*dA*dG*dT*dG*dG*eG*e[5mC]*e[5mC]*eG*e[5mC]) [compound 407625]”, the “% Inhibition” value rises from 52% to 100%.

Same assay, conditions: Table 6, 50 nM, lipofectin, approximately 24 hours

With “422125 (antisense e[5mC]*eT*eG*eA*eG*d[5mC]*dG*d[5mC]*dG*dG*dA*dA*dG*dA*dA*eG*eG*eG*eA*e[5mC]) [compound 422125]” the “% Inhibition” value was 8%.

Same assay, conditions: Table 13 (microwalk), 50 nM, lipofectin, approximately 24 hours

With “422149 (antisense e[5mC]*eA*eT*dG*dG*dT*dG*dA*dT*dG*d[5mC]*dT*dT*d[5mC]*dT*dG*dA*eA*eT*eT) [compound 422149]” the “% Inhibition” value was 61%.

Same assay, conditions: gapmers targeted to nucleobases 4868 to 4899 of SEQ ID NO: 1, Table 8

With “422138 (antisense eT*e[5mC]*eT*eG*e[5mC]*dA*dG*dG*dA*dG*d[5mC]*dG*dG*d[5mC]*d[5mC]*eT*eA*eA*eA*eT) [compound 422138]” the “% Inhibition of human Factor 7 mRNA levels” value was 70%.

Same assay, conditions: lipofectin, 50 nM antisense oligonucleotide, approximately 24 hours, Factor 7 mRNA by real-time RT-PCR (RTS 2927), relative to untreated control

First: 416534 (antisense eA*eT*eG*e[5mC]*eA*d[5mC]*dA*d[5mC]*d[5mC]*dA*dG*dG*dG*d[5mC]*dT*eG*e[5mC]*eT*eG*eG) [compound 416534]
Second: 416553 (antisense eG*eG*eT*eT*e[5mC]*dT*d[5mC]*dT*dG*d[5mC]*dA*d[5mC]*dA*dG*dG*eG*eT*eA*eG*eA) [compound 416553]
The “% Inhibition” value of the first is lower: 32% for the first, 56% for the second.

Going from “416464 (antisense eA*eA*e[5mC]*eA*eT*dG*dT*dA*d[5mC]*dT*d[5mC]*d[5mC]*dG*dT*dG*eA*eT*eA*eT*eT) [compound 416464]” to “416546 (antisense e[5mC]*e[5mC]*eA*eG*eG*d[5mC]*dT*dG*dG*dT*dT*dT*dG*dG*dA*eG*eA*eA*eA*e[5mC]) [compound 416546]”, the “% Inhibition” value falls from 53% to 21%.

Going from “416487 (antisense eG*e[5mC]*eA*eG*eG*dT*dG*d[5mC]*dT*d[5mC]*d[5mC]*d[5mC]*dA*dG*dG*eG*eT*e[5mC]*eT*e[5mC]) [compound 416487]” to “416560 (antisense eT*eA*eA*eA*eA*d[5mC]*dT*dT*dT*dA*dT*dT*dT*dA*d[5mC]*eA*eA*eG*eA*eG) [compound 416560]”, the “% Inhibition” value falls from 39% to 0%.

Going from “416531 (antisense eA*eG*eA*eT*eG*dA*d[5mC]*d[5mC]*dA*dG*d[5mC]*dA*dG*dG*dA*eA*eG*e[5mC]*e[5mC]*eT) [compound 416531]” to “416453 (antisense eG*eA*eT*eT*eT*dT*dG*dT*d[5mC]*dG*dA*dA*dA*d[5mC]*dA*eG*eT*eG*eG*eG) [compound 416453]”, the “% Inhibition” value rises from 19% to 45%.

Compared with “416456 (antisense e[5mC]*eT*eG*e[5mC]*eG*d[5mC]*d[5mC]*dA*d[5mC]*d[5mC]*d[5mC]*dG*d[5mC]*d[5mC]*dG*eG*e[5mC]*eT*e[5mC]*eT) [compound 416456]”, “416551 (antisense e[5mC]*eA*eG*eA*eA*dA*d[5mC]*dA*d[5mC]*d[5mC]*d[5mC]*dA*dT*d[5mC]*d[5mC]*eT*e[5mC]*eT*eG*eA) [compound 416551]” is lower in “% Inhibition” value: 58% for the first, 19% for the second.

First: 416427 (antisense e[5mC]*e[5mC]*e[5mC]*eT*eG*dA*dA*dG*d[5mC]*d[5mC]*d[5mC]*dA*dA*dG*d[5mC]*eA*eG*eA*eA*eG) [compound 416427]
Second: 416511 (antisense eT*eT*eG*e[5mC]*eT*dG*dG*dG*dA*dG*dG*dA*d[5mC]*dG*dA*eG*eG*e[5mC]*e[5mC]*eT) [compound 416511]
The “% Inhibition” value of the first is lower: 5% for the first, 35% for the second.

Same assay, conditions: oligonucleotides targeted to nucleobases 11830 to 11869 of SEQ ID NO: 1 (Table 9)

First: 422104 (antisense eG*eG*e[5mC]*eT*eG*dA*dG*dG*dA*dG*dA*d[5mC]*dA*dA*dT*eG*eG*eT*e[5mC]*eA) [compound 422104]
Second: 422173 (antisense e[5mC]*eT*eG*dG*d[5mC]*dT*dG*dA*dG*dG*dA*dG*dA*d[5mC]*dA*dA*dT*eG*eG*eT) [compound 422173]
The “% Inhibition (human Factor 7 mRNA levels)” value of the first is higher: 59% for the first, 51% for the second.

First: 422171 (antisense eG*eG*e[5mC]*dT*dG*dA*dG*dG*dA*dG*dA*d[5mC]*dA*dA*dT*dG*dG*eT*e[5mC]*eA) [compound 422171]
Second: 422239 (antisense eG*eA*d[5mC]*dA*dA*dT*dG*dG*dT*d[5mC]*dA*dG*dG*dG*d[5mC]*eT*eG*eG*eT*eT) [compound 422239]
The “% Inhibition (human Factor 7 mRNA levels)” value of the first is lower: 61% for the first, 67% for the second.

Going from “422251 (antisense eG*e[5mC]*dT*dG*dG*d[5mC]*dT*dG*dA*dG*dG*dA*dG*dA*d[5mC]*eA*eA*eT*eG*eG) [compound 422251]” to “422160 (antisense e[5mC]*eA*eA*dT*dG*dG*dT*d[5mC]*dA*dG*dG*dG*d[5mC]*dT*dG*dG*dT*eT*eT*eT) [compound 422160]”, the “% Inhibition (human Factor 7 mRNA levels)” value rises from 36% to 42%.

Same assay, conditions: oligonucleotides targeted to nucleobases 13760 to 13789 of SEQ ID NO: 1 (Table 10)

In the case of “416456 (antisense e[5mC]*eT*eG*e[5mC]*eG*d[5mC]*d[5mC]*dA*d[5mC]*d[5mC]*d[5mC]*dG*d[5mC]*d[5mC]*dG*eG*e[5mC]*eT*e[5mC]*eT) [compound 416456]”, the “% Inhibition (human Factor 7 mRNA levels)” value is reported as 50%.

Same assay, conditions: oligonucleotides targeted to nucleobases 14707 to 14732 of SEQ ID NO: 1 (Table 11)

Going from “422201 (antisense eG*e[5mC]*e[5mC]*dT*dG*dA*dG*dG*d[5mC]*d[5mC]*dA*dG*d[5mC]*dA*dG*dA*dT*e[5mC]*eA*e[5mC]) [compound 422201]” to “422133 (antisense eA*eG*e[5mC]*eA*eG*d[5mC]*d[5mC]*dT*dG*dA*dG*dG*d[5mC]*d[5mC]*dA*eG*e[5mC]*eA*eG*eA) [compound 422133]”, the “% Inhibition (human Factor 7 mRNA levels)” value falls from 71% to 65%.
